For five compounds, IC50 results are on record in patent US20110105474A1, “HETEROCYCLIC DERIVATIVES AS HDAC INHIBITORS” (DAC S.r.l., priority 2008, published 2011).

Structures can show the parent of a compound that is named as a salt.

What all share (type): cell-based
In one assay the test system is HCT-116 cells. Briefly: Cell growth, CellTiter-Glo Luminescent Cell Viability Assay, HCT-116. The following applies: Homo sapiens, 72 h incubation, read-out: IC50 HCT116. In outline: (§1)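 K562, A549 and HCT-116 cells in exponential growth exposed to inhibitors at varying concentrations for 72 h. Viability read as ATP luminescence (CellTiter-Glo, 10 min at RT after lysis); IC50 from dose-response, reported as ranges.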

For another assay, the system named is A549 cells. The experiment in a line: Cell growth, CellTiter-Glo Luminescent Cell Viability Assay, A549. As to conditions: Homo sapiens, 72 h incubation. The gist of the method: as §1
Another assay concerns K562 cells. Briefly: Cell growth, CellTiter-Glo Luminescent Cell Viability Assay, K562. The following applies: Homo sapiens, 72 h incubation. In outline: as §1

Regarding `O=C(/C=C/c1cccc(/C=C/C(=O)N2CCCC(c3nc(-c4ccc(F)cc4)no3)C2)n1)NO` (stereo not drawn) [Example 94, (E)-3-[6-((E)-3-{3-[3-(4-Fluoro-phenyl)-[1,2,4]oxadiazol-5-yl]-piperidin-1-yl}-3-oxo-propenyl)-pyridin-2-yl]-N-hydroxy-acrylamide hydrochloride], the values for the IC50 in the assay on HCT-116 cells, with A549 cells and in the assay on K562 cells were no more than 1000 nM, 1000 to 3000 nM and no more than 1000 nM, respectively.

`O=C(/C=C/c1cccc(/C=C/C(=O)N2CCC=C(c3ccccc3)C2)n1)NO` [Example 95, (E)-N-Hydroxy-3-{6-[(E)-3-oxo-3-(5-phenyl-3,6-dihydro-2H-pyridin-1-yl)-propenyl]-pyridin-2-yl}-acrylamide hydrochloride]: the half-maximal inhibitory concentration (IC50) in the assay on HCT-116 cells, in the assay on A549 cells and in the assay with K562 cells was no more than 1000 nM throughout.

As to `O=C(/C=C/c1cccc(/C=C/C(=O)N2CCc3cc(-c4ccccc4)ccc3C2)n1)NO` [Example 96, (E)-N-Hydroxy-3-{6-[(E)-3-oxo-3-(6-phenyl-3,4-dihydro-1H-isoquinolin-2-yl)-propenyl]-pyridin-2-yl}-acrylamide hydrochloride], the half-maximal inhibitory concentration (IC50) with HCT-116 cells was 1000 to 3000 nM; in the assay on A549 cells it was no less than 3000 nM; in the assay on K562 cells, 1000 to 3000 nM.

Regarding `O=C(/C=C/c1cccc(/C=C/C(=O)N2CCc3nc(-c4ccccc4)sc3C2)n1)NO` [Example 97, (E)-N-Hydroxy-3-{6-[(E)-3-oxo-3-(2-phenyl-6,7-dihydro-4H-thiazolo[5,4-c]pyridin-5-yl)-propenyl]-pyridin-2-yl}-acrylamide hydrochloride], the results for the half-maximal inhibitory concentration (IC50) in the assay with HCT-116 cells, with A549 cells and in the assay with K562 cells were no more than 1000 nM, 1000 to 3000 nM and no more than 1000 nM, respectively.

For `O=C(/C=C/c1cccc(/C=C/C(=O)N2CCCc3nc(-c4ccccc4)sc32)n1)NO` [Example 98, (E)-N-Hydroxy-3-{6-[(E)-3-oxo-3-(2-phenyl-6,7-dihydro-5H-thiazolo[5,4-b]pyridin-4-A-propenyl]-pyridin-2-yl}-acrylamide trifluoroacetate], the half-inhibitory concentration (IC50) was no more than 1000 nM in the assay on HCT-116 cells, 1000 to 3000 nM with A549 cells and 1000 to 3000 nM with K562 cells.
